Test results published in US8987212B2, “Oleanoyl peptide composition and method of treating skin aging” (priority 2007, dated 2015).
Where a SMILES comes first, the peptide text is derived from it. The star is where a group is joined. X1 = CC1(C)CC[C@]2(C(=O)*)CC[C@]3(C)C(=CCC4[C@@]5(C)CC[C@H](O)C(C)(C)C5CC[C@]43C)C2C1

Legend:
LTB4 = LTB4 inhibition (same procedure as TNF α); assay type: cell-based, human; details: at 0.625 μg/ml
Source text: The above procedure is also followed for determining LTB4 inhibition by Oleanoyl peptide. From the results tabulated in table 1, it is clear that Oleanoyl peptide is a better TNF α and LTB4 inhibitor.

TNF α = TNF α inhibition in LPS-stimulated human whole blood (ELISA); assay type: cell-based; details: human whole blood, LPS 1 ng/mL
Source text: For TNF α inhibitory study, human whole blood is used. In whole blood assay, monocytes appear to be the main source of TNF-α on lipopolysaccharide (LPS) stimulation. Monocyte and macrophages are a major source of TNF-α in addition to other cell types like eosinophils, mast cells, peripheral lymphocytes and granulocytes. The activation of inflammatory cells is influenced by the intracellular levels of c-AMP which are regulated by the phosphodiesterase isoenzyme. […] After stimulation, the assay employs the quantitative sandwich enzyme immunoassay technique. A monoclonal antibody specific for TNF-α has been pre-coated onto a microplate. TNF-α present in the sample is bound by the immobilized antibody. After washing away any unbound substances, an enzyme-linked polyclonal antibody specific for TNF-α is added. Following a wash to remove any unbound antibody-enzyme reagent, a substrate solution is added to the wells and colour develops in proportion to the amount of TNF-α bound in the initial step. The colour development is stopped and the intensity of the colour is directly proportional to the TNF-α content.
Heparinized blood from healthy donors was diluted 1:3 in RPMI 1640 culture medium containing 10% FBS. […] 0.1% DMSO was used as vehicle for water insoluble samples. After pre-incubation, the whole blood cells were stimulated by 1 ng/mL LPS for the release of TNF α from the macrophages by incubating for 5 hr at 37° C. in an incubator with 5% COP. The samples were then centrifuged at 3000 g for 3 minutes at 4° C. and the supernatant was assayed for TNF α content by using the TNF α Elisa kit. 200 μL of supernatant from all the tubes was transferred into microtiter plate in respective wells (Pre-coated mouse monoclonal antibody microplate) followed by the addition of 50 μL of assay diluents in all the wells. After incubation for 2 hr at room temperature, the wells were washed thoroughly with wash buffer provided and then 200 μL of conjugate was added to each well. The plate was incubated for 2 hr at room temperature. After washing again, 200 μL of substrate solution was added to each well and incubated for 20 minutes at room temperature. 50 μL of Stop Solution to each well which will cause the colour change in the wells from blue to yellow was added. The optical density was read at 450 nm which is directly proportional to TNF α content and the percentage of inhibition of TNF α content on treatment with sample was calculated with respect to that of the untreated cells.
T=absorbance due to TNF α in the presence of inhibitor

Prostaglandin E2 (PGE2) = assay: Extracellular PGE2 from LPS-challenged human neutrophils; assay type: cell-based; details: for % activity PGE2 expression against LPS control: ↓ = inhibition
Description: (§1) Experimental observations were made in human neutrophil that were challenged with LPS. […] Rolipram at 100 μg/ml dose level was used as a standard drug to observe the authenticity and reproducibility of the experimental design.
The Oleanoyl peptide was also screened for NO and PGE2 expression.

[1] = test system: B16F1 mouse melanoma cells; assay: Melanin inhibition in α-MSH induced melanoma cells; assay type: cell-based
Description: B16F1 mouse melanoma cells were seeded in a 6 well microtiter plate at a seeding density of 5000 cells per well in 2 ml DMEM medium per well. After 24 hours of incubation in a CO2 incubator, melanin production is induced by 0.1 nM ∝-MSH by replacing the medium with medium containing ∝-MSH. The cells were then treated with varying concentrations of sample (composition containing oleanoyl peptide and stilbenes/licorice extract/THC) over a period of 9 days with renewal of ∝-MSH containing medium and sample at regular intervals of 3 days. Control wells were maintained without sample treatment and only with the vehicle used for sample preparation. After the incubation period, the medium was removed and the cells were scraped and washed in PBS. Thereafter, melanin was extracted by 1N NaOH in boiling water bath for 5 minutes. The absorbance of the melanin extract was read at 405 nm in a microplate reader. The inhibitory effect of the sample is calculated based on the decrease of melanin formation.
T=absorbance due to melanin in the presence of inhibitor

Interleukin-6 (IL-6) = assay: Extracellular IL-6 from LPS-challenged human neutrophils; assay type: cell-based; details: for % activity IL-6 expression against LPS control: ↓ = inhibition
Description: as §1

C[C@@H](O)[C@H](NC(=O)[C@H](CCCCN)NC(=O)[C@]12CCC(C)(C)CC1C1=CCC3[C@@]4(C)CC[C@H](O)C(C)(C)C4CC[C@@]3(C)[C@]1(C)CC2)C(=O)N[C@H](C(=O)N[C@@H](CCCCN)C(=O)N[C@@H](CO)C(=O)O)[C@@H](C)O (stereo partly drawn) [Oleanoyl peptide, Oleanoyl-Lys-Thr-Thr-Lys-Ser-OH] (X1-KTTKS-OH)
LTB4 inhibition, % inhibition (LTB4): 26%
TNF α inhibition (IC50 μg/ml) (TNF α): 21 µg/mL
Concentration of PGE2 produced (pg/ml) Mean ± S.E. (Prostaglandin E2 (PGE2); test sample 0.125 μg/ml): 573.82 ± 6.08 pg/mL
Concentration of PGE2 produced (pg/ml) Mean ± S.E. (Prostaglandin E2 (PGE2); test sample 0.25 μg/ml): 501.64 ± 7.56 pg/mL
Concentration of PGE2 produced (pg/ml) Mean ± S.E. (Prostaglandin E2 (PGE2); test sample 0.5 μg/ml): 468.31 ± 6.41 pg/mL
Concentration of PGE2 produced (pg/ml) Mean ± S.E. (Prostaglandin E2 (PGE2); test sample 1 μg/ml): 419.53 ± 5.07 pg/mL
Concentration of PGE2 produced (pg/ml) Mean ± S.E. (Prostaglandin E2 (PGE2); test sample 2 μg/ml): 384.44 ± 8.02 pg/mL
Concentration of PGE2 produced (pg/ml) Mean ± S.E. (Prostaglandin E2 (PGE2); test sample 4 μg/ml): 395.81 ± 4.68 pg/mL
% activity PGE2 expression against LPS control (Prostaglandin E2 (PGE2); test sample 0.125 μg/ml): 25.37↓ %
% activity PGE2 expression against LPS control (Prostaglandin E2 (PGE2); test sample 0.25 μg/ml): 34.76↓ %
% activity PGE2 expression against LPS control (Prostaglandin E2 (PGE2); test sample 0.5 μg/ml): 39.09↓ %
% activity PGE2 expression against LPS control (Prostaglandin E2 (PGE2); test sample 1 μg/ml): 45.44↓ %
% activity PGE2 expression against LPS control (Prostaglandin E2 (PGE2); test sample 2 μg/ml): 50.00%
% activity PGE2 expression against LPS control (Prostaglandin E2 (PGE2); test sample 2 μg/ml, listed as OP): 50.00↓ %
% activity PGE2 expression against LPS control (Prostaglandin E2 (PGE2); test sample 4 μg/ml): 48.52↓ %
reduction in melanin ([1]; result in words, FIG. 15): no significant reduction in melanin
Melanin inhibition IC50 (μg/ml), Individual active ([1]; α-MSH induced, 9 days): Not significant
Concentration of IL-6 produced (pg/ml) Mean ± S.E. (Interleukin-6 (IL-6); test sample 0.125 μg/ml): 130.38 ± 2.11 pg/mL
Concentration of IL-6 produced (pg/ml) Mean ± S.E. (Interleukin-6 (IL-6); test sample 0.25 μg/ml): 123.92 ± 2.09 pg/mL
Concentration of IL-6 produced (pg/ml) Mean ± S.E. (Interleukin-6 (IL-6); test sample 0.5 μg/ml): 117.23 ± 2.84 pg/mL
Concentration of IL-6 produced (pg/ml) Mean ± S.E. (Interleukin-6 (IL-6); test sample 1 μg/ml): 106.81 ± 3.79 pg/mL
Concentration of IL-6 produced (pg/ml) Mean ± S.E. (Interleukin-6 (IL-6); test sample 2 μg/ml): 104.75 ± 5.31 pg/mL
Concentration of IL-6 produced (pg/ml) Mean ± S.E. (Interleukin-6 (IL-6); test sample 4 μg/ml): 101.11 ± 2.87 pg/mL
% activity IL-6 expression against LPS control (Interleukin-6 (IL-6); test sample 0.125 μg/ml): 8.33↓ %
% activity IL-6 expression against LPS control (Interleukin-6 (IL-6); test sample 0.25 μg/ml): 12.87↓ %
% activity IL-6 expression against LPS control (Interleukin-6 (IL-6); test sample 0.5 μg/ml): 17.58↓ %
% activity IL-6 expression against LPS control (Interleukin-6 (IL-6); test sample 1 μg/ml): 24.90↓ %
% activity IL-6 expression against LPS control (Interleukin-6 (IL-6); test sample 2 μg/ml): 26.35↓ %
% activity IL-6 expression against LPS control (Interleukin-6 (IL-6); test sample 4 μg/ml): 28.03%
% activity IL-6 expression against LPS control (Interleukin-6 (IL-6); test sample 4 μg/ml, listed as OP): 28.91↓ %
